Test results published in paper PMC11601558, “SLC6A19 inhibition facilitates urinary neutral amino acid excretion and lowers plasma phenylalanine” (JCI Insight, 2024).
“And” between values parts separate entries of the source, which are not always exact repeats. Identical values can stand only once.

System: WT C57Bl/6J mice
Experiment: Urine amino acid excretion in WT C57Bl/6J mice after JN-170
Assay type: in vivo, mouse
Set-up: urine Gln excretion / urine Phe excretion: unit not given here
Settings: for 12 hour urine Arg (Fig 2b) / 12 hour urine Gln (Fig 2b) / 12 hour urine Glu (Fig 2b) / 12 hour urine His (Fig 2b) / 12 hour urine Lys (Fig 2b) / 12 hour urine Met (Fig 2b) / 12 hour urine Phe (Fig 2b) / 12 hour urine Pro (Fig 2b) / 12 hour urine Ser (Fig 2b) / 12 hour urine Thr (Fig 2b) / 12 hour urine Trp (Fig 2b) / 12 hour urine Tyr (Fig 2b): individual mice
Protocol: Male homozygous BTBR-Pah<enu2>/J (Pah^enu2) aged 10–13 weeks were purchased from Jackson Laboratory (no. 002232). Immediately before dosing, each animal’s bladder was manually emptied and a plasma sample was drawn. Animals were dosed by oral gavage with vehicle (10% DMSO, 20% 2-hydroxypropyl-β-cyclodextrin [Sigma-Aldrich]) followed by a 1-week washout prior to dosing with JN-170 at doses ranging from 50 to 250 mg/kg. Following dosing with vehicle or JN-170, animals were individually placed in metabolic cages to collect urine samples. After collection of each urine sample, cages were rinsed with ultra-pure water to recover residual analytes. Blood samples were collected predose as well as 1, 3, 8, 12, and 24 hours after dosing with vehicle or JN-170 into tubes with EDTA as a […], and plasma was separated by centrifuging samples at 2,200g for 5 minutes at 4°C. Throughout the study, mice had access to food and water ad libitum. Plasma and urine samples were stored at –80°C until processing.Ten-week-old male WT C57Bl/6J animals (Si Bei Fu Laboratory Animal Technology Co. Ltd.) were dosed either with vehicle or 50–250 mg/kg JN-170 by oral gavage and blood and urine samples were collected as described. All animals had unrestricted access to food and water during the study; C57Bl/6J were kept on rodent maintenance diet from Beijing Keao Xieli, Pah^enu2 mice were kept on Teklad diet no. T.2018.
Urine and cage-wash samples were vortexed and centrifuged at 3,700g for 5 minutes to remove any solid precipitate. Neat samples and samples diluted 1:10 in water were further diluted 1:10 in crash solution (75% acetonitrile 25% methanol, 0.1% formic acid, 5 mM heavy labeled amino acids) to precipitate proteins. Samples were centrifuged at 3,700g for 5 minutes before the supernatant was transferred into an injection plate. Urine amino acid analysis was carried out using a quadrupole time of flight (QToF) LC-mass spectrometry (QToF-LC-MS) bioanalytical method. A standard curve of 1 mM down to 0.06 μM was used as the calibration curve to which samples were quantified. The amino acid concentrations were calculated with a 1/×2 linear regression over a concentration range of 60 nM to 1,000 μM of the individual amino acids. An Agilent QToF 6545 was operated in an accurate mass full scan range of 100–1,700 m/z positive ions formed by electrospray ionization with a normal phase HILIC chromatographic method. An Agilent InfinityLab Poroshell 120 HILIC-Z, 2.1 × 150 mm, 2.7 μm was used as the analytical column with 10 mM Ammonium Acetate in 0.1% FA as mobile phase A and 10 mM Ammonium Acetate in 95% ACN, 0.1% FA as mobile phase B. At a flow rate of 0.25 mL/min, the binary gradient increased from an initial 100% phase B to 90% phase B over 3 minutes. After 1.5 minutes, the gradient ramped to 80% mobile phase B. At 5.6 minutes into the gradient, mobile phase B ramped from 60% to 0% and held for 2 minutes before returning to initial conditions at 7.5 minutes. The gradient was stopped at 10 minutes.Total urine amino acid amounts were calculated by multiplying urine amino acid concentrations by the urine volume and adding the amount of amino acid recovered in the cage wash, which was calculated by multiplying the cage wash amino acid concentration by the cage wash volume.

[1] = Fig S3b, WT mice, individual animals
[2] = WT mice, 0–3 hours after 200 mg/kg

SMILES: N#Cc1ccc(-c2noc([C@]3(C(F)(F)F)CCN(C(=O)NCCC4(N)CC4)C3)n2)cc1 [JN-170]
- 12 hour urine Arg (Fig 2b) (50 mg/kg single oral dose): 42.35 µg and 21.61 µg and 86.86 µg and 32.17 µg and 60.46 µg and 54.76 µg
- 12 hour urine Gln (Fig 2b) (50 mg/kg single oral dose): 1216.88 µg and 424.1 µg and 3207.04 µg and 1668.39 µg and 2208.59 µg and 1050.68 µg
- 12 hour urine Glu (Fig 2b) (50 mg/kg single oral dose): 29.83 µg and 17.33 µg and 39.89 µg and 30.41 µg and 48.52 µg and 28.91 µg
- 12 hour urine His (Fig 2b) (50 mg/kg single oral dose): 99.8 µg and 39.7 µg and 232.38 µg and 133.78 µg and 173.51 µg and 97.64 µg
- 12 hour urine Lys (Fig 2b) (50 mg/kg single oral dose): 34.24 µg and 15.87 µg and 87.69 µg and 25.64 µg and 70.14 µg and 37.6 µg
- 12 hour urine Met (Fig 2b) (50 mg/kg single oral dose): 22.43 µg and 9.44 µg and 86.47 µg and 39.61 µg and 54.33 µg
- 12 hour urine Phe (Fig 2b) (50 mg/kg single oral dose): 9.69 µg and 12.9 µg and 44.78 µg and 18.25 µg and 46.82 µg and 10.07 µg
- 12 hour urine Pro (Fig 2b) (50 mg/kg single oral dose): 8.47 µg and 4.8 µg and 12.9 µg and 9.81 µg and 24.06 µg and 10.26 µg
- 12 hour urine Ser (Fig 2b) (50 mg/kg single oral dose): 30.76 µg and 12.92 µg and 98.91 µg and 47.01 µg and 97.58 µg and 29.03 µg
- 12 hour urine Thr (Fig 2b) (50 mg/kg single oral dose): 158.71 µg and 83.75 µg and 358.72 µg and 229.83 µg and 330.77 µg and 183.12 µg
- 12 hour urine Trp (Fig 2b) (50 mg/kg single oral dose): 7.91 µg and 4.53 µg and 17.51 µg and 12.59 µg and 19.36 µg and 8.39 µg
- 12 hour urine Tyr (Fig 2b) (50 mg/kg single oral dose): 86.45 µg and 42.23 µg and 289.76 µg and 150.67 µg and 234.77 µg and 101.34 µg
- 12 hour urine Arg (Fig 2b) (100 mg/kg single oral dose): 84.18 µg and 60.05 µg and 104.07 µg and 105.27 µg and 46.38 µg and 44.86 µg
- 12 hour urine Gln (Fig 2b) (100 mg/kg single oral dose): 3618.3 µg and 3716.4 µg and 5677.3 µg and 3847.03 µg and 3083.95 µg and 2876.64 µg
- 12 hour urine Glu (Fig 2b) (100 mg/kg single oral dose): 46.32 µg and 46.97 µg and 58.94 µg and 50.51 µg and 40.88 µg and 28.49 µg
- 12 hour urine His (Fig 2b) (100 mg/kg single oral dose): 295.94 µg and 255.87 µg and 436.69 µg and 286 µg and 268.58 µg and 216 µg
- 12 hour urine Lys (Fig 2b) (100 mg/kg single oral dose): 113.28 µg and 69.96 µg and 170.84 µg and 119.16 µg and 64.12 µg and 61.63 µg
- 12 hour urine Met (Fig 2b) (100 mg/kg single oral dose): 69.6 µg and 61.3 µg and 109.16 µg and 65.46 µg and 59.17 µg and 56.84 µg
- 12 hour urine Phe (Fig 2b) (100 mg/kg single oral dose): 57.79 µg and 56.42 µg and 118.09 µg and 57.72 µg and 36.93 µg and 35.59 µg
- 12 hour urine Pro (Fig 2b) (100 mg/kg single oral dose): 8.92 µg and 10.04 µg and 30.88 µg and 13.13 µg and 10.09 µg and 9.04 µg
- 12 hour urine Ser (Fig 2b) (100 mg/kg single oral dose): 108.24 µg and 109.95 µg and 223.3 µg and 89.79 µg and 97.93 µg and 80.73 µg
- 12 hour urine Thr (Fig 2b) (100 mg/kg single oral dose): 506.96 µg and 408.61 µg and 713.8 µg and 526.01 µg and 450.28 µg and 363.04 µg
- 12 hour urine Trp (Fig 2b) (100 mg/kg single oral dose): 23.65 µg and 18.61 µg and 32.89 µg and 21.7 µg and 20.33 µg and 13.52 µg
- 12 hour urine Tyr (Fig 2b) (100 mg/kg single oral dose): 347.53 µg and 292.84 µg and 493.76 µg and 286.11 µg and 269.6 µg and 215.7 µg
- 12 hour urine Arg (Fig 2b) (200 mg/kg single oral dose): 57.75 µg and 78.23 µg and 75.91 µg and 43.73 µg and 83.72 µg and 75.77 µg
- 12 hour urine Gln (Fig 2b) (200 mg/kg single oral dose): 4199.73 µg and 4322.77 µg and 4076.82 µg and 4061.16 µg and 5861.18 µg and 4643.5 µg
- 12 hour urine Glu (Fig 2b) (200 mg/kg single oral dose): 38.45 µg and 57.79 µg and 49.69 µg and 35.38 µg and 50.26 µg and 67.43 µg
- 12 hour urine His (Fig 2b) (200 mg/kg single oral dose): 416.82 µg and 349.23 µg and 335.84 µg and 309.72 µg and 451.38 µg and 370.2 µg
- 12 hour urine Lys (Fig 2b) (200 mg/kg single oral dose): 104.5 µg and 123.16 µg and 131.26 µg and 79.18 µg and 151.5 µg and 70.63 µg
- 12 hour urine Met (Fig 2b) (200 mg/kg single oral dose): 123.47 µg and 86.31 µg and 49.16 µg and 59.08 µg and 101.09 µg and 139.58 µg
- 12 hour urine Phe (Fig 2b) (200 mg/kg single oral dose): 133.44 µg and 84.26 µg and 51.41 µg and 40.35 µg and 175.28 µg and 83.35 µg
- 12 hour urine Pro (Fig 2b) (200 mg/kg single oral dose): 13.11 µg and 14.35 µg and 18.33 µg and 8.21 µg and 20.58 µg and 15.61 µg
- 12 hour urine Ser (Fig 2b) (200 mg/kg single oral dose): 170.69 µg and 159.37 µg and 110.1 µg and 92.34 µg and 194.17 µg and 159.84 µg
- 12 hour urine Thr (Fig 2b) (200 mg/kg single oral dose): 631.21 µg and 617.4 µg and 618.83 µg and 576.45 µg and 832.11 µg and 699.79 µg
- 12 hour urine Trp (Fig 2b) (200 mg/kg single oral dose): 40.01 µg and 30.26 µg and 27.35 µg and 18.62 µg and 33.13 µg and 31.85 µg
- 12 hour urine Tyr (Fig 2b) (200 mg/kg single oral dose): 480.66 µg and 434.44 µg and 355.04 µg and 315.96 µg and 607.88 µg and 491.56 µg
- 12 hour urine Arg (Fig 2b) (250 mg/kg single oral dose): 80.65 µg and 55.84 µg and 88.5 µg and 63.14 µg and 86.48 µg and 72.88 µg
- 12 hour urine Gln (Fig 2b) (250 mg/kg single oral dose): 7107.31 µg and 3727.75 µg and 5603.56 µg and 4267.69 µg and 6411.47 µg and 5312.07 µg
- 12 hour urine Glu (Fig 2b) (250 mg/kg single oral dose): 72.56 µg and 44.09 µg and 57.4 µg and 37.58 µg and 54.56 µg and 45.85 µg
- 12 hour urine His (Fig 2b) (250 mg/kg single oral dose): 551.64 µg and 312.28 µg and 484.93 µg and 357.16 µg and 531.6 µg and 380.26 µg
- 12 hour urine Lys (Fig 2b) (250 mg/kg single oral dose): 195.46 µg and 113.58 µg and 174.58 µg and 158.8 µg and 185.91 µg and 135.3 µg
- 12 hour urine Met (Fig 2b) (250 mg/kg single oral dose): 187.74 µg and 68.61 µg and 113.61 µg and 89.08 µg and 102.86 µg and 165.83 µg
- 12 hour urine Phe (Fig 2b) (250 mg/kg single oral dose): 183.47 µg and 73.49 µg and 113.19 µg and 97.89 µg and 98.25 µg and 112.7 µg
- 12 hour urine Pro (Fig 2b) (250 mg/kg single oral dose): 23.91 µg and 11.83 µg and 17.19 µg and 13.18 µg and 15.23 µg and 18.44 µg
- 12 hour urine Ser (Fig 2b) (250 mg/kg single oral dose): 292.3 µg and 114.91 µg and 195.78 µg and 144.05 µg and 202.42 µg and 201.61 µg
- 12 hour urine Thr (Fig 2b) (250 mg/kg single oral dose): 952.09 µg and 536.61 µg and 931.14 µg and 639.81 µg and 964.07 µg and 684.47 µg
- 12 hour urine Trp (Fig 2b) (250 mg/kg single oral dose): 51.77 µg and 27.86 µg and 38.14 µg and 35.4 µg and 37.19 µg and 32.26 µg
- 12 hour urine Tyr (Fig 2b) (250 mg/kg single oral dose): 668.76 µg and 364.7 µg and 555.89 µg and 445.94 µg and 662.56 µg and 523.46 µg
- increase in urinary Gln excretion vs vehicle (250 mg/kg, 12 h urine): 84 fold
- increase in urinary His excretion vs vehicle (250 mg/kg, 12 h urine): 32 fold
- increase in urinary Thr excretion vs vehicle (250 mg/kg, 12 h urine): 29 fold
- urinary Gln excretion, mean ± SD (250 mg/kg, 12 h urine): 5,405 ± 1270 μg
- urinary His excretion, mean ± SD (250 mg/kg, 12 h urine): 436 ± 100 µg
- urinary Thr excretion, mean ± SD (250 mg/kg, 12 h urine): 785 ± 187 µg
- urinary Pro excretion, mean ± SD (250 mg/kg, 12 h urine, effect negligible): 17 ± 4 µg
- urine Gln excretion [1]: 1587.77 and 1811.58 and 1136.33 and 1371.1 and 1542.95 and 797.75
- urine Phe excretion [1]: 31.41 and 35.2 and 15.95 and 12.69 and 89.66 and 34.45
- glutamine excreted in urine, mean ± SD [2]: 1,375 ± 362 μg
- urinary excretion of Phe, mean ± SD [2]: 37 ± 28 µg
